Reference: patent US20090035385A1, “COMPOSITIONS INCLUDING IRON” (DRUGTECH CORPORATION, priority 2004, published 2009)
Where two headings read alike, the source gives them in different places.

Experiments:
[1] = daily administration, 50 mg of elemental iron; based on generally accepted iron absorption rates
[2] = test system: gastrointestinal iron absorption; conditions: cited from earlier work
[3] = intravenous administration of the promoter
[4] = oral administration of the promoter

Compound | time required to supply 450 mg of iron for RBC regeneration and 300 mg of iron to replenish iron stores [1] | effect on gastrointestinal iron absorption [2, 3] | effect on gastrointestinal iron absorption [2, 4]
ferrous sulfate | approximately 9 months |  | 
O=C1O[C@H]([C@@H](O)CO)C(O)=C1O [Ascorbic acid, ascorbic acid] |  | not increased | enhance gastrointestinal iron absorption
O=C(O)CCC(=O)O [Succinic acid, succinic acid] |  | enhance gastrointestinal iron absorption | enhance gastrointestinal iron absorption
